Counter-ions that a name gives are not always drawn.
Tests used:
[1] = pH-dependent solubility of vardenafil hydrochloride trihydrate; assay type: physicochemical
Description: This great pH-dependence represents a hindrance in particular to the development of pharmaceutical dosage forms with controlled release of active ingredient for oral use, because the medicinal form is exposed on passage through the gastrointestinal (GI) tract to media with pH values varying greatly from about pH 1 to pH 7.5. In order to achieve a sufficient bioavailability from a slow-release medicinal form, a substance must be absorbed if possible over the entire gastrointestinal tract. […] A slowing of the release of active ingredient usually leads in the case of substances subject to a very large first-pass effect to complete loss of the oral bioavailability, because the slow rise in level of the active ingredient means that the concentrations in the portal vein blood remain so low that the capacity of the metabolizing liver enzymes is sufficient for complete degradation.

[2] = cited from earlier work

Compound	solubility ([1]; aqueous buffer, in 0.15 M phosphate buffer of pH 4)	solubility ([1]; aqueous buffer, in 0.15 M phosphate buffer of pH 7)	solubility ([1]; simulated gastric fluid, in 0.1 N hydrochloric acid)	absolute oral bioavailability [2]
CCCc1nc(C)c2c(=O)[nH]c(-c3cc(S(=O)(=O)N4CCN(CC)CC4)ccc3OCC)nn12 [vardenafil hydrochloride trihydrate]	870 µg/mL	30 µg/mL	65000 µg/mL	–
CCCc1nc(C)c2c(=O)[nH]c(-c3cc(S(=O)(=O)N4CCN(CC)CC4)ccc3OCC)nn12 [vardenafil, {2-ethoxy-5-[(4-ethyl-1-piperazinyl)sulphonyl]phenyl}-5-methyl-7-propylimidazo[5,1-f]triazin-4(3H)-one]	–	–	–	15%

From patent US20080187588A1, “Formulations With Controlled Release Of Active Ingredient” (Bayer HealthCare AG, priority 2004, published 2008)
